Measurements as given in BigSolDB 2.1.

NC(=O)C[C@H](NC(=O)OCc1ccccc1)C(=O)O
solubility (mole fraction)
Conditions	283.15 K	288.15 K	293.15 K	298.15 K	303.15 K	308.15 K	313.15 K	318.15 K	323.15 K
in 1,4-dioxane	–	0.00212	0.00241	0.00271	0.00317	0.00358	0.00419	0.0049	0.0057
in 2-butanone	0.000329	0.000433	0.000544	0.000652	0.000745	0.00086	0.001	0.00112	0.00128
in acetone	0.000747	0.000777	0.000832	0.000971	0.00112	0.00136	0.00161	0.00194	0.00262
in acetonitrile	7.48e-05	0.000149	0.000221	0.000305	0.000395	0.000498	0.000599	0.00069	0.000775
in ethanol	0.000263	0.000463	0.000753	0.00114	0.00161	0.00213	0.00265	0.00311	0.00347
in isobutanol	4.91e-05	6.83e-05	9.5e-05	0.000157	0.000269	0.000403	0.000581	0.000831	0.00107
in isopropanol	8.58e-05	0.000238	0.000431	0.000625	0.000834	0.00105	0.00127	0.00153	0.00177
in methanol	0.00174	0.00188	0.00233	0.00274	0.00344	0.00413	0.00524	0.00647	0.00801
in n-butanol	0.00023	0.000293	0.000361	0.000476	0.000644	0.000846	0.0011	0.00135	0.00171
in n-pentanol	0.000182	0.000221	0.00027	0.000325	0.000415	0.000535	0.000652	0.000829	0.00104
in n-propanol	0.000285	0.000339	0.000439	0.000576	0.000737	0.000887	0.00116	0.00142	0.00175
in water	2.14e-05	2.75e-05	4.02e-05	5.55e-05	7.33e-05	9.44e-05	0.000121	0.000152	0.000198
